Here are results for four molecules from paper PMC4409337, “Immucillins Impair Leishmania (L.) infantum chagasi and Leishmania (L.) amazonensis Multiplication In Vitro” (PLoS ONE, 2015).

Structures are written as SMILES. Read-outs that look alike come from different tables or passages of the source.

Series [1] has as its system L. (L.) infantum chagasi promastigotes. Put plainly: Transmission electron microscopy of treated promastigotes. The settings on record: 10 μM, 72 h. Type of series: cell-based, Leishmania (L.) infantum chagasi. An excerpt: The cells were washed with Milli Q water, dehydrated in increasing concentration of acetone and embedded in Epon (1: 1) (PolyBed 812). The ultrathin sections were obtained, contrasted with 5% uranyl acetate and lead citrate and observed under a Joel 1200 electron microscope.

Series [2] relates to intracellular amastigotes of L. (L.) infantum chagasi. Briefly: Replication of intracellular amastigotes in infected peritoneal macrophages (phagocytic index). The settings on record: for EC50: Leishmania infantum, Peritoneal macrophage, read-out: EC50 (CI 95%); for decrease of intracellular amastigote parasite load: low micromolar concentrations, single to daily protocol. The class given is cell-based, Leishmania (L.) infantum chagasi. The method, then: […] […] The amastigote growth was assessed 24 h after the last drug addition, on 200 cells in Giemsa stained coverslips and expressed as phagocytic index = percent of infected macrophages x average number of intracellular amastigotes. […] All experiments with mice were reviewed and approved by the Animal Care and Use Committee of the Instituto de Biofísica Carlos Chagas Fo.-UFRJ (CAUAP-CONCEA, Brazil, IMPPG-016) and were performed according to the guidelines of the National Institutes of Health, USA. We made all efforts in order to minimize animal suffering.

The subject of series [3] is L. (L.) amazonensis promastigotes. Put plainly: In vitro growth of promastigotes in FBS supplemented Schneider's insect medium. Type of series: cell-based, Leishmania (L.) amazonensis. Conditions: Leishmania amazonensis; for inhibition at 500 µM: read-out: percent inhibition on L. (L.) amazonensis replication; for IC50: read-out: IC50 (CI 95%) on L. (L.) amazonensis promastigotes in vitro growth. An excerpt:
The strain of Leishmania (L.) infantum chagasi MHOM/BR/1974/PP75 was obtained from the Leishmania Type Culture Collection (Fundacão Oswaldo Cruz, Rio de Janeiro, RJ, Brazil) and the strain of Leishmania (L.) amazonensis (MHOM/BR/1975/Josefa) was kindly given by Professor Rosâ[…] from Universidade Federal do Rio de Janeiro. Promastigotes were maintained by weekly transfers in screw-capped glass tubes containing Schneider's insect medium (Sigma Aldrich, MO, USA), pH 7.0, supplemented with 10% Fetal Bovine Serum (FBS) at 26°C. Stock solutions (20 mM) of immucillins IA […] prepared using Milli-Q purified water. Log phase promastigotes of L. (L.) infantum chagasi and L. […] Promastigotes were recorded in a Neubauer chamber after 24, 48, 72 and 96 hours of incubation at 26°C. […] We also assayed the possibility of reversing the inhibitory effect of IA in RPMI medium by the addition of adenosine to the culture medium. The concentration of adenosine in Schneider s insect serum supplemented medium was assessed by HPLC using a C-18 reverse-phase column as described.

For series [4], the target named is T1, Nucleoside hydrolase NH36 (Leishmania donovani, UniProt Q8WQX2).
T1 sequence (Q8WQX2 1-314): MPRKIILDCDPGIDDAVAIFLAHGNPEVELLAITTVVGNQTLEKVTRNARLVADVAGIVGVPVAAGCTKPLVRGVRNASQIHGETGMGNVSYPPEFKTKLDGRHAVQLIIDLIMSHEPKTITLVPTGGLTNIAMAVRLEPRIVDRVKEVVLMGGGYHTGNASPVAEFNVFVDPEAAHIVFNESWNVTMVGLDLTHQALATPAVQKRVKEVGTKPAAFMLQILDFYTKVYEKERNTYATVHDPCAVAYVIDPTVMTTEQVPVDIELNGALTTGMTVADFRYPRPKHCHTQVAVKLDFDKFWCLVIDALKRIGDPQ
Briefly: Ki determination: inhibition of NH36 activity by immucillins. Type of series: biochemical, Leishmania (L.) donovani. Conditions: 10 mM inosine as substrate, 0.5 nM NH36, pH 7.4, room temperature. The method, then: (§1) BL21DE3 E.coli were transformed with the synthetic plasmid pET 28b encoding the gene of NH36 of Leishmania (L.) donovani (EMBL, Genbank and DDJB data bases, access number AY007193) with a His6tag at the C-terminal. Expression was induced with 0.5 mM IPTG and overnight incubation at 20°C. Purification of NH36 was performed on a column of Ni-NTA Superflow resin (Qiagen, USA) eluted by a stepwise imidazole gradient and monitored by SDS-polyacrylamide gel electrophoresis and protein assay. The extinction coefficient of NH36 is 21.437 mM^-1 cm^-1 at 280 nm, as calculated with the ProtParam program from ExPASy, and was used to estimate protein concentration (http://ca.expasy.org/seqanalref/). The yield of NH36 after purification was 11.87 mg per Liter of bacterial growth culture. Non-specific His-proteins with weak interactions were eluted with 50–100 mM imidazole (S1 Fig). The purified NH36 started to elute with 150 mM imidazole. We used 250 mM of imidazol in elution buffer for purification of NH36.
The reaction mixtures contained 10 mM inosine as substrate, 50 mM Hepes (pH 7.4), 100 mM KCl, 5 mM DTT and 1 unit XOD. The hydrolysis of inosine to hypoxanthine and ribose was followed by continuous reading of optical absorbance at 293 nm, using variable concentrations of inhibitors in a CARY 300UV-visible spectrophotometer. Controls without enzyme and without inhibitors were included in all inhibition assays. The inhibition constant for each immucillin was obtained, using GraFit 5 (Erithacus Software), by fitting initial rates with variable inhibitor concentrations to the equation (vi/v0 = [S] / Km + [S] + Km[I] / Ki), where v i is the initial rate in the presence of the inhibitor, v 0 is the initial rate in the absence of the inhibitor, K m is the Michaelis constant for inosine, [S] and [I] are inosine and inhibitor concentrations, respectively, and Ki is the inhibition constant.

Series [5] has as its system L. (L.) infantum chagasi promastigotes. Put plainly: In vitro growth of promastigotes in FBS supplemented Schneider's insect medium. The class given is cell-based, Leishmania (L.) infantum chagasi. An excerpt:
The strain of Leishmania (L.) infantum chagasi MHOM/BR/1974/PP75 was obtained from the Leishmania Type Culture Collection (Fundacão Oswaldo Cruz, Rio de Janeiro, RJ, Brazil) and the strain of Leishmania (L.) amazonensis (MHOM/BR/1975/Josefa) was kindly given by Professor Rosâ[…] from Universidade Federal do Rio de Janeiro. Promastigotes were maintained by weekly transfers in screw-capped glass tubes containing Schneider's insect medium (Sigma Aldrich, MO, USA), pH 7.0, supplemented with 10% Fetal Bovine Serum (FBS) at 26°C. […] Log phase promastigotes of L. (L.) infantum chagasi and L. […] Promastigotes were recorded in a Neubauer chamber after 24, 48, 72 and 96 hours of incubation at 26°C. […] The concentration of adenosine in Schneider s insect serum supplemented medium was assessed by HPLC using a C-18 reverse-phase column as described.

Series [6] can be described thus: Macrophage viability and cytotoxicity (Trypan Blue). Conditions: female, BALB/c, mouse. The method, then: Alternatively, the immucillins were added at 0, 24 and 48 h and viability assessed after 72h. […] The amastigote growth was assessed 24 h after the last drug addition, on 200 cells in Giemsa stained coverslips and expressed as phagocytic index = percent of infected macrophages x average number of intracellular amastigotes. […] All experiments with mice were reviewed and approved by the Animal Care and Use Committee of the Instituto de Biofísica Carlos Chagas Fo.-UFRJ (CAUAP-CONCEA, Brazil, IMPPG-016) and were performed according to the guidelines of the National Institutes of Health, USA. We made all efforts in order to minimize animal suffering.

The test system of a further series is NH of L. (L.) major. Set-up: method as in PMID 10409664. Conditions: ref 13; cited from earlier work.
The subject of series [7] is Nucleoside hydrolase NH36 of L. (L.) donovani. The class given is biochemical, Leishmania (L.) donovani. Conditions: substrate of NH36; for k cat /K m: catalytic efficiency; for K m / k cat: 25°C, 50 mM Hepes pH 7.4. The method, then:
as §1
Steady-state kinetic rates for NH36 were determined on the substrates inosine, guanosine, adenosine, uridine and cytidine. Hypoxanthine and adenine formation were coupled to xanthine oxidase (12.9 mM^-1 cm^-1 at 293 nm and 15.2 mM^-1 cm^-1 at 305 nm, respectively), and the others were followed by direct uv absorbance changes resulting from cleavage of the N-ribosidic bond. Reaction mixtures contained 50 mM Hepes (pH 7.4), 100 mM NaCl and 5 mM of DTT. One unit, and 0.1 unit of xanthine oxidase (XOD) were used as the coupling enzyme to the adenosine and inosine assays, respectively. Spectral changes for hydrolysis of guanosine, uridine and cytidine were 5.4 mM^-1 cm^-1 at 257 nm,1.8 mM^-1 cm^-1 at 280 nm and 1.8 mM^-1 cm^-1 at 288 nm, respectively. Variable concentrations of substrate and appropriate amounts of purified NH36 were added in all assays. The hydrolysis of nucleosides to bases and ribose was followed by continuous recording of optical absorbance after addition of the enzyme, in a CARY 300 UV-visible spectrophotometer. Control rates with no enzyme addition were subtracted from initial rates. Reactions with substrates were conducted at 25°C using 1 cm path length cuvettes containing 1 mL reaction volumes. Kinetic parameters of NH36 were obtained by fitting initial rates to the Michaelis−Menten equation using GraFit 5 (Erithacus Software).

In series [8] the test system is nucleoside hydrolase from Leishmania (L.) donovani. Further details: method as in PMID 11738828. Conditions: NH cloned in pET-22; cited from earlier work.
The mark [9] stands for this setting: 10 μM added daily at 0, 24 and 48 h.
Where [10] appears, read: single 10 μM dose at 0 h, compared to untreated controls.

As usually defined, the EC50 is the concentration needed to bring the measured effect to its halfway point. Usually inhibition stands for how much of the control response was suppressed. The term IC50 denotes the concentration at which inhibition is half-maximal. Broadly, the Ki is the equilibrium dissociation constant of an inhibitor or competing ligand from its target. For the molecule `O=c1[nH]cnc2c(CNC(CO)CO)c[nH]c12` [SMIH], the “effect on cellular ultrastructure of promastigotes” value in series [1] is “complete alteration of their cellular morphology with intense cytoplasm vacuolization, enlarged vesicles and alterations in the kinetoplasts”. For the same molecule, the “reduction in the number of intracellular amastigotes” value worked out at 95% in [2] (setting [9]) and 70% in series [2] (setting [10]). In series [2] (drugs (0.5–10 μM) added at 0 h, incubation 24 h, linear interpolation), the EC50 is 7.1 µM. Besides, the “decrease of intracellular amastigote parasite load” value in series [2] was 74–95%. Besides, the inhibition at 0.05 µM came to 61% in [3] (50 nM, after 96 h of culture, read-out: percent growth inhibition on L. (L.) amazonensis) and 99% in series [5] (Leishmania infantum, 50 nM, after 96 h of culture, read-out: percent inhibition on L. (L.) infantum chagasi promastigote growth). Also, in series [3] (500 μM, after 96 h of culture), the inhibition at 500 µM is 71%. Further, the IC50 in series [3] (single addition at 0 h, evaluated after 48 hours, 26°C) is 0.007 µM; in series [5] (Leishmania infantum, drugs added at 0, 24 and 48 h, after 48h, read-out: IC50 on promastigote growth, daily addition) it was 1 nM; in [5] (Leishmania infantum, drugs added at 0, 24 and 48 h, at 72 and 96 h, read-out: IC50 on promastigote growth, daily addition), below 0.01 nM; in [5] (Leishmania infantum, single addition at 0 h, evaluated after 48 hours, 26°C, read-out: IC50 (CI 95%) on L. (L.) infantum chagasi promastigotes in vitro growth) it was 8 nM. The molecule also came in with a Ki in series [4] above 5 µM. Also, the “reduction of the IC50 by daily addition compared to single addition” value in series [5] (daily addition (0, 24, 48 h) vs single addition (Table 2), 48 h) is given as 88%. Besides, in series [6] (peritoneal macrophages), the CC50 at 48 h was 800 µM.
Turning to `O=c1[nH]cnc2c([C@@H]3N[C@H](CO)[C@@H](O)[C@H]3O)c[nH]c12` [IH], the “effect on cellular ultrastructure of promastigotes” value in series [1] was “alterations and swelling of kinetoplasts”. Also, the entries for the “reduction in the number of intracellular amastigotes” value in series [2] (setting [9]) and in series [2] (setting [10]) were 95% and 70%, respectively. Moreover, in series [2], the EC50 was 3.69 µM. Further, the “decrease of intracellular amastigote parasite load” value in [2] is on record as 74–95%. Further, in series [3] (96 h), the inhibition at 500 µM was 71%. Moreover, the concentration for half-maximal inhibition (IC50) in series [3] was 49.7 µM; in [5] (Leishmania infantum, read-out: IC50 (CI 95%) on L. (L.) infantum chagasi promastigotes in vitro growth, single addition at 0 h, evaluated after 48 hours, 26°C), 30600 nM; in series [5] (Leishmania infantum, read-out: IC50 on promastigote growth, daily addition, drugs added at 0, 24 and 48 h, after 48h), 6700 nM; in series [5] (Leishmania infantum, read-out: IC50 on promastigote growth, daily addition, drugs added at 0, 24 and 48 h, at 72 and 96 h), below 50 nM. Also, the Ki in series [4] came out at 0.019 µM. In [6], this molecule registered a CC50 at 48 h of 950 µM.
`O=c1ccn([C@@H]2O[C@H](CO)[C@@H](O)[C@H]2O)c(=O)[nH]1` [Uridine]: the k cat with NH of L. (L.) major is 32 s⁻¹. Moreover, in series [7], the “k cat /K m” value was found to be 16000 M⁻¹ s⁻¹, the K m is reported as 2,100 ± 561 μM and the k cat worked out at 34.3 ± 4.2 s ^-1. The k cat in series [8] is 9.5 s⁻¹.
As to `O=c1[nH]cnc2c1ncn2[C@@H]1O[C@H](CO)[C@@H](O)[C@H]1O` [Inosine], in the series on NH of L. (L.) major, the k cat is 119 s⁻¹. Further, in series [7], the “k cat /K m” value stood at 31800 M⁻¹ s⁻¹, the K m stood at 340 ± 30 µM and the k cat came out at 10.8 ± 0.3 s ^-1. For the same molecule, the k cat in series [8] is 7.6 s⁻¹.
